Experimental data as given in the supplement of paper PMC10307832.

Legend:
Test in all cases: relative viability (nuclei count vs DMSO), 5 days (fraction); higher = more cells survive
Ispinesib + Luminespib = compound: Cc1ccc(C(=O)N(CCCN)[C@@H](c2nc3cc(Cl)ccc3c(=O)n2Cc2ccccc2)C(C)C)cc1 [Ispinesib] + CCNC(=O)c1noc(-c2cc(C(C)C)c(O)cc2O)c1-c1ccc(CN2CCOCC2)cc1 [Luminespib] (partner 0.01 µM)
In short: (§1)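 Dosing by pin tool came one day after lung cancer cell lines were seeded in 1536-well plates, using either one drug or a fixed anchor-drug dose plus five library-drug doses (not always all listed) in √10 steps. After 5 days, nuclei were counted on 4× images. Relative viability is treated-well nuclei count divided by vehicle-well nuclei count, and values are medians of duplicate plates.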

Linsitinib + Alpelisib = compound: C[C@]1(O)C[C@@H](c2nc(-c3ccc4ccc(-c5ccccc5)nc4c3)c3c(N)nccn32)C1 [Linsitinib] + Cc1nc(NC(=O)N2CCC[C@H]2C(N)=O)sc1-c1ccnc(C(C)(C)C(F)(F)F)c1 [Alpelisib] (partner 2 µM)
In short: as §1

Linsitinib + Palbociclib = compound: C[C@]1(O)C[C@@H](c2nc(-c3ccc4ccc(-c5ccccc5)nc4c3)c3c(N)nccn32)C1 [Linsitinib] + CC(=O)c1c(C)c2cnc(Nc3ccc(N4CCNCC4)cn3)nc2n(C2CCCC2)c1=O [Palbociclib] (partner 0.5 µM)
In short: as §1

Ispinesib + Navitoclax = compound: Cc1ccc(C(=O)N(CCCN)[C@@H](c2nc3cc(Cl)ccc3c(=O)n2Cc2ccccc2)C(C)C)cc1 [Ispinesib] + CC1(C)CCC(c2ccc(Cl)cc2)=C(CN2CCN(c3ccc(C(=O)NS(=O)(=O)c4ccc(N[C@H](CCN5CCOCC5)CSc5ccccc5)c(S(=O)(=O)C(F)(F)F)c4)cc3)CC2)C1 [Navitoclax] (partner 0.5 µM)
In short: as §1

UMC-11 gave a relative viability (Ispinesib + Luminespib; first compound 0.001 µM) of 0.919, a relative viability (Ispinesib + Luminespib; first compound 0.003162 µM) of 1.02 and a relative viability (Ispinesib + Luminespib; first compound 0.01 µM) of 1.05. It also gave a relative viability (Ispinesib + Luminespib; first compound 0.03162 µM) of 0.451, a relative viability (Ispinesib + Luminespib; first compound 0.1 µM) of 0.323 and a relative viability (Linsitinib + Alpelisib; first compound 0.01 µM) of 0.958. The relative viability (Linsitinib + Alpelisib; first compound 0.03162 µM) was 0.951, the relative viability (Linsitinib + Alpelisib; first compound 0.1 µM) was 0.961 and the relative viability (Linsitinib + Alpelisib; first compound 1 µM) was 0.969. The relative viability (Linsitinib + Palbociclib; first compound 0.01 µM) was 0.303, the relative viability (Linsitinib + Palbociclib; first compound 0.03162 µM) was 0.301 and the relative viability (Linsitinib + Palbociclib; first compound 0.1 µM) was 0.33. For the same cell line, the relative viability (Linsitinib + Palbociclib; first compound 0.3162 µM) was 0.322, the relative viability (Linsitinib + Palbociclib; first compound 1 µM) was 0.332 and the relative viability (Ispinesib + Navitoclax; first compound 0.001 µM) was 0.314. It also gave a relative viability (Ispinesib + Navitoclax; first compound 0.003162 µM) of 0.371, a relative viability (Ispinesib + Navitoclax; first compound 0.01 µM) of 0.267 and a relative viability (Ispinesib + Navitoclax; first compound 0.03162 µM) of 0.176. The relative viability (Ispinesib + Navitoclax; first compound 0.1 µM) was 0.216.
